Assay results reported in patent publication US6362183B1, “Aromatic sulfonyl alpha-hydroxy hydroxamic acid compounds” (G. D. Searle & Company, priority 1997, dated 2002).

How the values were obtained:
recombinant human MMP-1 = molecular target: T1, recombinant human MMP-1 (Homo sapiens, UniProt P03956); test: In vitro metalloprotease inhibition, fluorogenic peptide assay; format: biochemical; conditions: APMA-activated enzyme, MCA peptide substrate 4 μM, room temperature, pH 7.5
T1 construct: made in house; host or cells: transfected HT-1080 cells
T1 sequence (P03956 100-469): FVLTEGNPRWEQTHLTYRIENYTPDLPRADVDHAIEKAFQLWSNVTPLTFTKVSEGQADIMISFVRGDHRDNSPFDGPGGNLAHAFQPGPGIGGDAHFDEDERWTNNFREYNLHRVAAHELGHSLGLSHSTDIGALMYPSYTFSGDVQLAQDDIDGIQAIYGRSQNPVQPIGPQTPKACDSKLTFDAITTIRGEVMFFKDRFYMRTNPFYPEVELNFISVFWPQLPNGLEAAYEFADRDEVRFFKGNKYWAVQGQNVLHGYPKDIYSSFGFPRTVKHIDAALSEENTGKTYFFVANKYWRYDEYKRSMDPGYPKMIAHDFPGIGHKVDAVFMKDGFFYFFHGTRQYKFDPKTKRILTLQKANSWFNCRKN
Procedure: (§1) Briefly, 4-aminophenylmercuric acetate (APMA) or trypsin activated MMPs were incubated with various concentrations of the inhibitor compound at room temperature for 5 minutes.
(§2) More specifically, recombinant human MMP-13 and MMP-1 enzymes were prepared in laboratories of the assignee. MMP-13 was expressed in baculovirus as a proenzyme, and purified first over a heparin agarose column and then over a chelating zinc chloride column. The proenzyme was activated by APMA for use in the assay. MMP-1 expressed in transfected HT-1080 cells was provided by Dr. Howard Welgus of Washington University, St. Louis, Mo. The enzyme was also activated using APMA and was then purified over a hydroxamic acid column.
(§3) MCA-ProLeuGlyLeuDpaAlaArgNH^2, wherein MCA is methoxycoumarin and Dpa is 3-(2,4-dinitrophenyl)-L-2,3-diaminopropionyl alanine.
(§4) The buffer used for assays contained 100 mM Tris-HCl, 100 mM NaCl, 10 mM CaCl2 and 0.05 percent polyethyleneglycol (23) lauryl ether at a pH value of 7.5.

recombinant human MMP-13 = molecular target: T2, recombinant human MMP-13 (Homo sapiens, UniProt P45452); test: as above; format: biochemical; conditions: for IC50: APMA-activated enzyme, MCA peptide substrate 4 μM, room temperature, pH 7.5
T2 construct: made in house
Procedure: as §1, §2, §3, §4

MMP-2 = molecular target: T3, MMP-2 (Homo sapiens, UniProt P08253); test: as above; format: biochemical; conditions: MCA peptide substrate 4 μM, room temperature, pH 7.5
T3 sequence (P08253 110-660): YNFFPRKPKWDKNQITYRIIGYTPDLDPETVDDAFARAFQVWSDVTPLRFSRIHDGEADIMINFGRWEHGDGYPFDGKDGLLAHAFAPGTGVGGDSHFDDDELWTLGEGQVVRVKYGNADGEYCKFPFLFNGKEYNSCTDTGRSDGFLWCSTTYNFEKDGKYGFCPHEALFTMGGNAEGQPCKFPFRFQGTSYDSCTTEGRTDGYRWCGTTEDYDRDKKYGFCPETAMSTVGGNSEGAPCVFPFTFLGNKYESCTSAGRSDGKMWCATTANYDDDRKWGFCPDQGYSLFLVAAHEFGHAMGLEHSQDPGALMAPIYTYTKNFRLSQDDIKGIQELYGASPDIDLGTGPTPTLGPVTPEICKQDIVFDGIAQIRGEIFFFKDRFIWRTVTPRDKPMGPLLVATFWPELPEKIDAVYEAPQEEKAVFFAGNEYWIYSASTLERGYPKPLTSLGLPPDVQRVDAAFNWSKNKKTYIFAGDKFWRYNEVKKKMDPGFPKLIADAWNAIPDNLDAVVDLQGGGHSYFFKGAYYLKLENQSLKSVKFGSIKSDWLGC
Procedure: as §1, §3, §4

MMP-3 = MMP-3 (Homo sapiens, UniProt P08254); test: as above; format: biochemical; conditions: MCA peptide substrate 4 μM, room temperature, pH 7.5
Chain of MMP-3 (P08254 100-477, species assumed): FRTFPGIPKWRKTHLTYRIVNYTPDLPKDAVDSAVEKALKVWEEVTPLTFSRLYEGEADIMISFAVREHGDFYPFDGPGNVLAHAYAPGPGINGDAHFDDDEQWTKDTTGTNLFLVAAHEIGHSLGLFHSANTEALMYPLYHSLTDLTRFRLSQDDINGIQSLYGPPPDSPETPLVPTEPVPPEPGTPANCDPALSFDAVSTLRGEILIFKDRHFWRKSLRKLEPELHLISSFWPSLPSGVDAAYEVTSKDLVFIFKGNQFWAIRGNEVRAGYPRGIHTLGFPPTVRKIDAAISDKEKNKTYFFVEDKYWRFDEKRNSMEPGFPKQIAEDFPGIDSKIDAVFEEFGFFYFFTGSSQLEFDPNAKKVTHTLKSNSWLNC
Procedure: as §1, §3, §4

MMP-8 = MMP-8 (Homo sapiens, UniProt P22894); test: as above; format: biochemical; conditions: MCA peptide substrate 4 μM, room temperature, pH 7.5
Chain of MMP-8 (P22894 101-467, species assumed): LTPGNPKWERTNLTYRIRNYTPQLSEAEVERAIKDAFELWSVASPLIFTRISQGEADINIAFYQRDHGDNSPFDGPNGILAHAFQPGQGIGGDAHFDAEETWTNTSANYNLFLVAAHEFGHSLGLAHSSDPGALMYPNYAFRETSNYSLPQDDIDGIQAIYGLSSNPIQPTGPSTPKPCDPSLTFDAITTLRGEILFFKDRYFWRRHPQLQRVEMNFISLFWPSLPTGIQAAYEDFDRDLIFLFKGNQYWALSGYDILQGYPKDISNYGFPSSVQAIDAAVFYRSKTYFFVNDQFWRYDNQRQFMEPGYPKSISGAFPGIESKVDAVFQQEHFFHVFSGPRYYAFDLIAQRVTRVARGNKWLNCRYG
Procedure: as §1, §3, §4

MMP-9 = MMP-9 (Homo sapiens, UniProt P14780); test: as above; format: biochemical; conditions: MCA peptide substrate 4 μM, room temperature, pH 7.5
Chain of MMP-9 (P14780 107-707 limits assumed, species assumed): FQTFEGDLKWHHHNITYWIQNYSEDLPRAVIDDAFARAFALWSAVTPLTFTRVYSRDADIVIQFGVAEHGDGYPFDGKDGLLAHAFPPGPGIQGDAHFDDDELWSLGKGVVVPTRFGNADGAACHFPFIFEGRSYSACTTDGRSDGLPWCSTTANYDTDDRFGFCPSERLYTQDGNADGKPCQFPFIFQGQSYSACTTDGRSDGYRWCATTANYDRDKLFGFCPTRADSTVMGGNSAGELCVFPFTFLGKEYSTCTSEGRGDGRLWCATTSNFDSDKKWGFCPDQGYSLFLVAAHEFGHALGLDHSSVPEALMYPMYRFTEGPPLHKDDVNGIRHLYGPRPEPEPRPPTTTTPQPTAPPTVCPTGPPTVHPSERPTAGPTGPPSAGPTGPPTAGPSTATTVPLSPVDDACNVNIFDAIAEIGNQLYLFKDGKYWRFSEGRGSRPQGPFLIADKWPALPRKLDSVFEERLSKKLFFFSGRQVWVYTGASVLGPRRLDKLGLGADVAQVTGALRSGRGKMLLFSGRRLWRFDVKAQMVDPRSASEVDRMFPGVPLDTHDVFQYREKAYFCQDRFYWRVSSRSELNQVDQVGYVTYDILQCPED
Procedure: as §1, §3, §4

[1] = test system: angiogenesis in the cornea of a mouse; test: In vivo angiogenesis assay (corneal micropocket assay); design: species or system mouse (C57Bl/6); conditions: area of corneal neovascularization, bFGF pellet, dosed daily, scored at day five; exemplary dose 50 mg/kg bid, po
Procedure: The study of angiogenesis depends on a reliable and reproducible model for the stimulation and inhibition of a neovascular response. The corneal micropocket assay provides such a model of angiogenesis in the cornea of a mouse. See, A Model of Angiogenesis in the Mouse Cornea; Kenyon, B M, et al., Investigative Ophthalmology & Visual Science, Jul.
In this assay, uniformly sized Hydron™ pellets containing bFGF and sucralfate were prepared and surgically implanted into the stroma mouse cornea adjacent to the temporal limbus. The pellets were formed by making a suspension of 20 μL sterile saline containing […] recombinant bFGF, 10 mg of sucralfate and 10 μL of 12 percent Hydron™ in ethanol. The slurry was then deposited on a 10×10 mm piece of sterile nylon mesh. After drying, the nylon fibers of the mesh were separated to release the pellets.
The corneal pocket was made by anesthetizing a 7 week old C57Bl/6 female mouse, then proptosing the eye with a jeweler's forceps. Using a dissecting microscope, a central, intrastromal linear keratotomy of approximately 0.6 mm in length was performed with a #15 surgical blade, parallel to the insertion of the lateral rectus muscle. Using a modified cataract knife, a lamellar micropocket was dissected toward the temporal limbus. The pocket was extended to within 1.0 mm of the temporal limbus. A single pellet was placed on the corneal surface at the base of the pocket with a jeweler's forceps. The pellet was then advanced to the temporal end of the pocket. Antibiotic ointment was then applied to the eye.
Mice were dosed on a daily basis for the duration of the assay. Dosing of the animals was based on bioavailability and overall potency of the compound. An exemplary dose is 50 mg/kg bid, po. Neovascularization of the corneal stroma begins at about day three and was permitted to continue under the influence of the assayed compound until day five. At day five, the degree of angiogenic inhibition was scored by viewing the neovascular progression with a slit lamp microscope.
The mice were anesthetized and the studied eye was once again proptosed. The maximum vessel length of neovascularization, extending from the limbal vascular plexus toward the pellet was measured. In addition, the contiguous circumferential zone of neovascularization was measured as clock hours, where 30 degrees of arc equals one clock hour. The area of angiogenesis was calculated as follows. [formula]
The studied mice were thereafter compared to control mice and the difference in the area of neovascularization was recorded.

[2] = test system: advanced, rapidly progressive, treatment-refractory solid tumor cancers; conditions: patients with colorectal, pancreatic, ovarian, prostate cancers; cited from earlier work

Row | IC50 (recombinant human MMP-1) | IC50 (recombinant human MMP-13) | IC50 (MMP-2) | IC50 (MMP-3) | IC50 (MMP-8) | IC50 (MMP-9) | ratio of inhibition of MMP-1 to inhibition of MMP-13, relative to the compound of opposite configuration (recombinant human MMP-13; Example 1A versus Example 1B) | inhibitory activity against MMP-13 (in words) (recombinant human MMP-13; discussion of Table 51) | SMILES | Percentage of Control [1] | effect on cancer-specific antigens used as surrogate markers for biological activity [2]
1 | 1100 nM | 1.1 nM | 0.5 nM | 30 nM | 2.5 nM | 4.8 nM |  |  | CC(O)(CS(=O)(=O)c1ccc(Oc2ccccc2)cc1)C(=O)NO (stereo not shown) [Example 1, N,2-dihydroxy-2-methyl-3-[(4-phenoxyphenyl)sulfonyl]propanamide] | 51.9% | 
2 | 1010 nM | 0.75 nM | 0.39 nM |  |  | 1.7 nM | about 2 times |  | C[C@@](O)(CS(=O)(=O)c1ccc(Oc2ccccc2)cc1)C(=O)NO [Example 1A, (S)—N,2-dihydroxy-2-methyl-3-[(4-phenoxyphenyl)sulfonyl]propanamide] | 62.7% | 
3 | > 10000 nM | 21.5 nM | 11 nM |  |  | 328 nM |  |  | C[C@](O)(CS(=O)(=O)c1ccc(Oc2ccccc2)cc1)C(=O)NO [Example 1B, (R)—N,2-dihydroxy-2-methyl-3-[(4-phenoxyphenyl)sulfonyl]-propanamide] | 49.3% | 
4 | 470 nM | 1.2 nM | 1 nM | 44 nM | 4.1 nM | 7 nM |  |  | O=C(NO)C(O)(CO)CS(=O)(=O)c1ccc(Oc2ccccc2)cc1 (stereo not shown) [Example 2, N,2-dihydroxy-2-(hydroxymethyl)-3-[(4-phenoxyphenyl)-sulfonyl]propanamide] | 53.4% | 
5 | 6000 nM | 3 nM | 1 nM | 166 nM | 4 nM | 20 nM |  |  | Cl.O=C(NO)C(O)(CN1CCOCC1)CS(=O)(=O)c1ccc(Oc2ccccc2)cc1 (stereo not drawn) [Example 3, N,α-dihydroxy-α-[[(4-phenoxyphenyl)sulfonyl]methyl]-4-morpholinepropanamide, monohydrochloride] | 77.4% | 
6 | 9000 nM | 0.4 nM | 0.4 nM | 48.5 nM | 4.5 nM | 12.4 nM |  |  | Cc1ccc(Oc2ccc(S(=O)(=O)CC(O)(CO)C(=O)NO)cc2)cc1C (stereo not shown) [Example 4, 3-[[4-(3,4-dimethylphenoxy)phenyl]sulfonyl]-N,2-dihydroxy-2-(hydroxymethyl)propanamide] | 65.2% | 
7 | > 10000 nM | 1.3 nM | 2.4 nM | 26.8 nM | 2.5 nM | 3.4 nM |  |  | Cc1ccc(Oc2ccc(S(=O)(=O)CC(C)(O)C(=O)NO)cc2)cc1C (stereo not shown) [Example 5, 3-[[4-(3,4-dimethylphenoxy)phenyl]sulfonyl]-N,2-dihydroxy-2-methylpropanamide] | 57.8% | 
8 | > 10000 nM | 2.1 nM | 2 nM | 51.8 nM | 4 nM | 13 nM |  |  | Cc1ccc(Oc2ccc(S(=O)(=O)CC(O)(CN3CCOCC3)C(=O)NO)cc2)cc1C (stereo not drawn) [Example 7, α-[[[4-(3,4-dimethylphenoxy)-phenyl]sulfonyl]methyl]-N-2-dihydroxy-4-morpholineproanamide] |  | 
9 | 3000 nM | 0.2 nM | 0.4 nM |  |  | 16 nM |  | excellent activity | O=C(NO)C(O)CS(=O)(=O)c1ccc(Oc2ccccc2)cc1 (stereo not shown) [Example 9] | 61.1% | 
10 | > 10000 nM | 110 nM | 0.8 nM |  |  | 1160 nM |  |  | CC(O)(CS(=O)(=O)c1ccc(NC(=O)c2ccccc2)cc1)C(=O)NO (stereo not shown) [Example 16, N-[4-[[2-hydroxy-3-(hydroxyamino)-2-methyl-3-oxopropyl]-sulfonyl]phenyl]benzamide] | 41.6% | 
11 |  |  |  |  |  |  |  |  | CNC(=O)[C@@H](NC(=O)[C@H](CC(C)C)[C@H](O)C(=O)NO)C(C)(C)C [marimastat] |  | dose-related reduction in the rise of cancer-specific antigens
